We go through 13 substances from patent US20240173432A1, “Compositions and Methods for Treatment of Myotonic Dystrophy Type 1 with CRISPR/SluCas9” (Vertex Pharmaceuticals Incorporated, priority 2021, published 2024).

For the first series, the system named is CTG repeat in the 3′ UTR of human DMPK gene. Kind of series: Dual-cut screening: CTG repeat excision efficiency by loss-of-signal ddPCR. Format: cell-based. The conditions noted are these: sgRNA pair; primary DM1 patient myoblasts; 3 μM DNA-PKi Compound 6 for 48 hours. In a few lines:
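Upstream and downstream SluCas9 RNPs (20 pmol protein, 60 pmol sgRNA each) mixed 1:1 and nucleofected into primary DM1 patient myoblasts, then treated 48 h with DMSO or 3 μM DNA-PKi Compound 6. Genomic DNA taken 72 h post-nucleofection; excision read as loss of target signal by ddPCR versus a DMPK exon 1 reference.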
For “SluU63 + SluD56 (guide 1 GGGGCTCGAAGGGTCCTTGTAG; guide 2 CCAGCCGGCTCCGCCCGCTTCG; guide RNA; listed as DNA, chemistry not fully specified)”, the “Excision efficiency (by ddPCR)” value is 90.05.
As to “SluU63 + SluD68 (guide 1 GGGGCTCGAAGGGTCCTTGTAG; guide 2 CCTGTAGCCTGTCAGCGAGTCG; guide RNA; listed as DNA, chemistry not fully specified)”, the “Excision efficiency (by ddPCR)” value turned out to be 93.64.
On the same count and under the same terms, for “SluU63 + SluD73 (guide 1 GGGGCTCGAAGGGTCCTTGTAG; guide 2 CCAAAACGTGGATTGGGGTTGT; guide RNA; listed as DNA, chemistry not fully specified)” the value was 95.51.
In the case of “SluU63 + SluD83 (guide 1 GGGGCTCGAAGGGTCCTTGTAG; guide 2 GTGGGGACAGACAATAAATACC; guide RNA; listed as DNA, chemistry not fully specified)”, the “Excision efficiency (by ddPCR)” value turned out to be 93.27.
On the same count and under the same terms, the value for “SluU63 + SluD100 (guide 1 GGGGCTCGAAGGGTCCTTGTAG; guide 2 GTCCAGAGCTTTGGGCAGATGG; guide RNA; listed as DNA, chemistry not fully specified)” was 91.5.
On to “SluU64 + SluD32 (guide 1 GGGCTCGAAGGGTCCTTGTAGC; guide 2 CTTGTGCATGACGCCCTGCTCT; guide RNA; listed as DNA, chemistry not fully specified)”, for which the “Excision efficiency (by ddPCR)” value turned out to be 85.56.
On the same count and under the same terms, for “SluU64 + SluD34 (guide 1 GGGCTCGAAGGGTCCTTGTAGC; guide 2 CGCGCCAGACGCTCCCCAGAGC; guide RNA; listed as DNA, chemistry not fully specified)” the value was 79.91; for “SluU64 + SluD48 (guide 1 GGGCTCGAAGGGTCCTTGTAGC; guide 2 GAGAGCAGCGCAAGTGAGGAGG; guide RNA; listed as DNA, chemistry not fully specified)”, 80.84; for “SluU64 + SluD56 (guide 1 GGGCTCGAAGGGTCCTTGTAGC; guide 2 CCAGCCGGCTCCGCCCGCTTCG; guide RNA; listed as DNA, chemistry not fully specified)”, 67.76.
Turning to “SluU64 + SluD68 (guide 1 GGGCTCGAAGGGTCCTTGTAGC; guide 2 CCTGTAGCCTGTCAGCGAGTCG; guide RNA; listed as DNA, chemistry not fully specified)”, the “Excision efficiency (by ddPCR)” value turned out to be 72.9.
The same measure, in the same setting: for “SluU64 + SluD73 (guide 1 GGGCTCGAAGGGTCCTTGTAGC; guide 2 CCAAAACGTGGATTGGGGTTGT; guide RNA; listed as DNA, chemistry not fully specified)” the value was 74.77.
Consider “SluU64 + SluD83 (guide 1 GGGCTCGAAGGGTCCTTGTAGC; guide 2 GTGGGGACAGACAATAAATACC; guide RNA; listed as DNA, chemistry not fully specified)”, for which the “Excision efficiency (by ddPCR)” value worked out at 78.97.
As for “SluU64 + SluD100 (guide 1 GGGCTCGAAGGGTCCTTGTAGC; guide 2 GTCCAGAGCTTTGGGCAGATGG; guide RNA; listed as DNA, chemistry not fully specified)”, the “Excision efficiency (by ddPCR)” value is on record as 68.22.

The same series, now with this note: sgRNA pair; primary DM1 patient myoblasts; vehicle (DMSO).
With “SluU63 + SluD56 (guide 1 GGGGCTCGAAGGGTCCTTGTAG; guide 2 CCAGCCGGCTCCGCCCGCTTCG; guide RNA; listed as DNA, chemistry not fully specified)”, the “Excision efficiency by ddPCR (Vehicle)” value is on record as 50.69.
Still for that read-out and setting: for “SluU63 + SluD68 (guide 1 GGGGCTCGAAGGGTCCTTGTAG; guide 2 CCTGTAGCCTGTCAGCGAGTCG; guide RNA; listed as DNA, chemistry not fully specified)” the value was 57.23.
Still for that read-out and setting: for “SluU63 + SluD73 (guide 1 GGGGCTCGAAGGGTCCTTGTAG; guide 2 CCAAAACGTGGATTGGGGTTGT; guide RNA; listed as DNA, chemistry not fully specified)” the value was 63.27; for “SluU63 + SluD83 (guide 1 GGGGCTCGAAGGGTCCTTGTAG; guide 2 GTGGGGACAGACAATAAATACC; guide RNA; listed as DNA, chemistry not fully specified)”, 58.74; for “SluU63 + SluD100 (guide 1 GGGGCTCGAAGGGTCCTTGTAG; guide 2 GTCCAGAGCTTTGGGCAGATGG; guide RNA; listed as DNA, chemistry not fully specified)”, 58.24.
Still for that read-out and setting: the value for “SluU64 + SluD32 (guide 1 GGGCTCGAAGGGTCCTTGTAGC; guide 2 CTTGTGCATGACGCCCTGCTCT; guide RNA; listed as DNA, chemistry not fully specified)” was 60.75.
“SluU64 + SluD34 (guide 1 GGGCTCGAAGGGTCCTTGTAGC; guide 2 CGCGCCAGACGCTCCCCAGAGC; guide RNA; listed as DNA, chemistry not fully specified)”: the “Excision efficiency by ddPCR (Vehicle)” value turned out to be 76.35.
On to “SluU64 + SluD48 (guide 1 GGGCTCGAAGGGTCCTTGTAGC; guide 2 GAGAGCAGCGCAAGTGAGGAGG; guide RNA; listed as DNA, chemistry not fully specified)”, for which the “Excision efficiency by ddPCR (Vehicle)” value is reported as 47.67.
On the same count and under the same terms, for “SluU64 + SluD56 (guide 1 GGGCTCGAAGGGTCCTTGTAGC; guide 2 CCAGCCGGCTCCGCCCGCTTCG; guide RNA; listed as DNA, chemistry not fully specified)” the value was 42.14; for “SluU64 + SluD68 (guide 1 GGGCTCGAAGGGTCCTTGTAGC; guide 2 CCTGTAGCCTGTCAGCGAGTCG; guide RNA; listed as DNA, chemistry not fully specified)”, 46.16; for “SluU64 + SluD73 (guide 1 GGGCTCGAAGGGTCCTTGTAGC; guide 2 CCAAAACGTGGATTGGGGTTGT; guide RNA; listed as DNA, chemistry not fully specified)”, 50.69.
On to “SluU64 + SluD83 (guide 1 GGGCTCGAAGGGTCCTTGTAGC; guide 2 GTGGGGACAGACAATAAATACC; guide RNA; listed as DNA, chemistry not fully specified)”, for which the “Excision efficiency by ddPCR (Vehicle)” value was determined as 55.22.
Same read-out and setting: for “SluU64 + SluD100 (guide 1 GGGCTCGAAGGGTCCTTGTAGC; guide 2 GTCCAGAGCTTTGGGCAGATGG; guide RNA; listed as DNA, chemistry not fully specified)” the value was 45.16.

A further series concerns CUG foci in primary DM1 patient myoblasts. Kind of series: Dual-cut screening: FISH staining of CUG RNA foci. The format is cell-based, human. The conditions noted are these: sgRNA pair; primary DM1 patient myoblasts; 3 μM DNA-PKi Compound 6 for 48 hours. In a few lines:
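SluCas9 RNPs (protein:sgRNA 1:3; 20 pmol SluCas9 + 60 pmol sgRNA per guide, paired 1:1) nucleofected into primary DM1 patient myoblasts, then DMSO or 3 μM DNA-PKi Compound 6 for 48 h. At 72 h post-nucleofection cells fixed, FISH-stained with Cy3-PNA(CAG)5 probe plus anti-MBNL1 and Hoechst; % CUG foci-free nuclei by high-content confocal imaging.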
“SluU63 + SluD56 (guide 1 GGGGCTCGAAGGGTCCTTGTAG; guide 2 CCAGCCGGCTCCGCCCGCTTCG; guide RNA; listed as DNA, chemistry not fully specified)”: the “% of CUG foci free nuclei (DNA-PKi)” value is on record as 88.12%.
As to “SluU63 + SluD68 (guide 1 GGGGCTCGAAGGGTCCTTGTAG; guide 2 CCTGTAGCCTGTCAGCGAGTCG; guide RNA; listed as DNA, chemistry not fully specified)”, the “% of CUG foci free nuclei (DNA-PKi)” value is given as 90.625%.
On the same count and under the same terms, the value for “SluU63 + SluD73 (guide 1 GGGGCTCGAAGGGTCCTTGTAG; guide 2 CCAAAACGTGGATTGGGGTTGT; guide RNA; listed as DNA, chemistry not fully specified)” was 90.58%.
On to “SluU63 + SluD83 (guide 1 GGGGCTCGAAGGGTCCTTGTAG; guide 2 GTGGGGACAGACAATAAATACC; guide RNA; listed as DNA, chemistry not fully specified)”, for which the “% of CUG foci free nuclei (DNA-PKi)” value was determined as 89.8%.
On the same count and under the same terms, the value for “SluU63 + SluD100 (guide 1 GGGGCTCGAAGGGTCCTTGTAG; guide 2 GTCCAGAGCTTTGGGCAGATGG; guide RNA; listed as DNA, chemistry not fully specified)” was 89.97%; that for “SluU64 + SluD32 (guide 1 GGGCTCGAAGGGTCCTTGTAGC; guide 2 CTTGTGCATGACGCCCTGCTCT; guide RNA; listed as DNA, chemistry not fully specified)” was 89.99%; that for “SluU64 + SluD34 (guide 1 GGGCTCGAAGGGTCCTTGTAGC; guide 2 CGCGCCAGACGCTCCCCAGAGC; guide RNA; listed as DNA, chemistry not fully specified)” was 91.45%.
Same read-out and setting: for “SluU64 + SluD48 (guide 1 GGGCTCGAAGGGTCCTTGTAGC; guide 2 GAGAGCAGCGCAAGTGAGGAGG; guide RNA; listed as DNA, chemistry not fully specified)” the value was 88.44%; for “SluU64 + SluD56 (guide 1 GGGCTCGAAGGGTCCTTGTAGC; guide 2 CCAGCCGGCTCCGCCCGCTTCG; guide RNA; listed as DNA, chemistry not fully specified)”, 87.6%.
“SluU64 + SluD68 (guide 1 GGGCTCGAAGGGTCCTTGTAGC; guide 2 CCTGTAGCCTGTCAGCGAGTCG; guide RNA; listed as DNA, chemistry not fully specified)”: the “% of CUG foci free nuclei (DNA-PKi)” value is reported as 89.56%.
Same read-out and setting: the value for “SluU64 + SluD73 (guide 1 GGGCTCGAAGGGTCCTTGTAGC; guide 2 CCAAAACGTGGATTGGGGTTGT; guide RNA; listed as DNA, chemistry not fully specified)” was 91.02%; that for “SluU64 + SluD83 (guide 1 GGGCTCGAAGGGTCCTTGTAGC; guide 2 GTGGGGACAGACAATAAATACC; guide RNA; listed as DNA, chemistry not fully specified)” was 90.63%.
With “SluU64 + SluD100 (guide 1 GGGCTCGAAGGGTCCTTGTAGC; guide 2 GTCCAGAGCTTTGGGCAGATGG; guide RNA; listed as DNA, chemistry not fully specified)”, the “% of CUG foci free nuclei (DNA-PKi)” value is recorded as 85.89%.

Staying with this series, now noted: sgRNA pair; primary DM1 patient myoblasts; vehicle (DMSO).
In the case of “SluU63 + SluD56 (guide 1 GGGGCTCGAAGGGTCCTTGTAG; guide 2 CCAGCCGGCTCCGCCCGCTTCG; guide RNA; listed as DNA, chemistry not fully specified)”, the “% of CUG foci free nuclei (Vehicle)” value was determined as 60.91%.
Consider “SluU63 + SluD68 (guide 1 GGGGCTCGAAGGGTCCTTGTAG; guide 2 CCTGTAGCCTGTCAGCGAGTCG; guide RNA; listed as DNA, chemistry not fully specified)”, for which the “% of CUG foci free nuclei (Vehicle)” value is recorded as 71.74%.
Regarding “SluU63 + SluD73 (guide 1 GGGGCTCGAAGGGTCCTTGTAG; guide 2 CCAAAACGTGGATTGGGGTTGT; guide RNA; listed as DNA, chemistry not fully specified)”, the “% of CUG foci free nuclei (Vehicle)” value was determined as 70.03%.
On the same count and under the same terms, for “SluU63 + SluD83 (guide 1 GGGGCTCGAAGGGTCCTTGTAG; guide 2 GTGGGGACAGACAATAAATACC; guide RNA; listed as DNA, chemistry not fully specified)” the value was 74.11%; for “SluU63 + SluD100 (guide 1 GGGGCTCGAAGGGTCCTTGTAG; guide 2 GTCCAGAGCTTTGGGCAGATGG; guide RNA; listed as DNA, chemistry not fully specified)”, 73.15%.
On the same count and under the same terms, the value for “SluU64 + SluD32 (guide 1 GGGCTCGAAGGGTCCTTGTAGC; guide 2 CTTGTGCATGACGCCCTGCTCT; guide RNA; listed as DNA, chemistry not fully specified)” was 77.6%; that for “SluU64 + SluD34 (guide 1 GGGCTCGAAGGGTCCTTGTAGC; guide 2 CGCGCCAGACGCTCCCCAGAGC; guide RNA; listed as DNA, chemistry not fully specified)” was 83.68%; that for “SluU64 + SluD48 (guide 1 GGGCTCGAAGGGTCCTTGTAGC; guide 2 GAGAGCAGCGCAAGTGAGGAGG; guide RNA; listed as DNA, chemistry not fully specified)” was 75.45%.
On the same count and under the same terms, the value for “SluU64 + SluD56 (guide 1 GGGCTCGAAGGGTCCTTGTAGC; guide 2 CCAGCCGGCTCCGCCCGCTTCG; guide RNA; listed as DNA, chemistry not fully specified)” was 60.36%; that for “SluU64 + SluD68 (guide 1 GGGCTCGAAGGGTCCTTGTAGC; guide 2 CCTGTAGCCTGTCAGCGAGTCG; guide RNA; listed as DNA, chemistry not fully specified)” was 74.94%.
Turning to “SluU64 + SluD73 (guide 1 GGGCTCGAAGGGTCCTTGTAGC; guide 2 CCAAAACGTGGATTGGGGTTGT; guide RNA; listed as DNA, chemistry not fully specified)”, the “% of CUG foci free nuclei (Vehicle)” value was 70.19%.
On the same count and under the same terms, for “SluU64 + SluD83 (guide 1 GGGCTCGAAGGGTCCTTGTAGC; guide 2 GTGGGGACAGACAATAAATACC; guide RNA; listed as DNA, chemistry not fully specified)” the value was 76.55%; for “SluU64 + SluD100 (guide 1 GGGCTCGAAGGGTCCTTGTAGC; guide 2 GTCCAGAGCTTTGGGCAGATGG; guide RNA; listed as DNA, chemistry not fully specified)”, 69.88%.
